Assay results from patent EP1285918A1, “C7 Ester substituted taxanes as antitumor agents” (Florida State University Research Foundation, Inc., priority 2001, dated 2003).
Like-named read-outs stand apart in the source and are kept apart here.

Columns and labels:
[1] = tested on: HCT116; assay: In Vitro cytotoxicity measured by the cell colony formation assay; type: cell-based; details: Homo sapiens, HCT-116; 72 h drug incubation, colonies counted after 7 days; concentration producing 50% inhibition of colony formation; read-out: IN VITRO ID 50 (nm) HCT116
[2] = tested on: SKMES Human Lung Carcinoma Xenograft
Procedure: Antitumor compounds were formulated for oral administration over a wide dose range in a study to investigate the efficacy of this compound against the SKMES human lung cancer xenograft. The antitumor compounds were prepared in the following vehicle: 5% ethanol, 5% Cremophor and 90% isotonic saline.
Female Nu/Nu mice (6-8 weeks of age; implanted with 1 mm^3 SKMES lung carcinoma fragments in the flank) were sorted into treatment groups of six mice each. SKMES size ranges and group mean SKMES size ranges were 126-448 mg and 238-241 mg, respectively. […] Treatments were administered as a single oral bolus on Day 1, and the study was terminated on Day 60.
The mean days of survival is the number of days after which a SKMES neoplasm reached a size of 2.0 g and the animal was euthanized. A complete response is obtained if the tumor is not palpable at the end of the study. A partial response is obtained if the tumor shrinks to a size smaller than its size on Day 1 of the study. […]

[3] = tested on: SKMES human lung cancer xenograft; details: for Survivors: 6 mice/group, study end Day 62; for 62-day survivors: SKMES, 6 mice
Procedure: Female Nu/Nu mice (6-8 weeks of age; implanted with 1 mm^3 SKMES lung carcinoma fragments in the flank) were sorted into treatment groups of six mice each. […] Treatment was administered as a single bolus on Day 1, and the study was terminated on Day 62.
(§1) The mean days of survival is the number of days after which a SKMES neoplasm reached a size of 2.0 g and the animal was euthanized. A complete response is obtained if the tumor is not palpable at the end of the study. A partial response is obtained if the tumor shrinks to a size smaller than its size on Day 1 of the study.

[4] = tested on: A375 Human Melanoma Xenograft; details: 10 mice/group, study end Day 60
Procedure: Female nu/nu mice (6-8 weeks of age; implanted subcutaneously with 1 mm^3 A375 melanoma fragments in the flank) were sorted into one control and four treatment groups of ten mice each (group mean tumor size of 96-98 mg). […] The study was terminated on Day 60.
as §1, with “a” for “a SKMES”

[5] = tested on: HCT116 Human Colon Carcinoma Xenograft; details: HCT116; i.v. Day 1 (Taxol 36 mg/kg split dose, 1393 73 mg/kg single dose); 5 mice/group; Day 60
[6] = SKMES, 1418 single oral bolus 90 mg/kg (Group 4), 6 mice, Day 60

CCC(=O)O[C@H]1C[C@H]2OC[C@@]2(OC(C)=O)[C@H]2[C@H](OC(=O)c3ccccc3)[C@]3(O)C[C@H](OC(=O)[C@H](O)[C@H](C=C(C)C)NC(=O)OC(C)(C)C)C(C)=C([C@@H](O)C(=O)[C@]12C)C3(C)C [Compound 1351]
IC50 [1]: < 1 nM

CCC(=O)OC1CC2OCC2(OC(C)=O)C2C(OC(=O)c3ccccc3)C3(O)CC(OC(=O)C(O)C(NC(=O)OC(C)(C)C)c4ccco4)C(C)=C(C(O)C(=O)C12C)C3(C)C (centres unmarked) [Compound 1393, 3'-Desphenyl-3'-(2-furyl)-7-propionyl taxotere]
Survivors ([2]; 5.2 mg/kg single oral bolus Day 1, 6 mice/group, study end Day 60): 1
Survivors ([2]; 10.4 mg/kg single oral bolus Day 1, 6 mice/group, study end Day 60): 1
Survivors ([2]; 20.8 mg/kg single oral bolus Day 1, 6 mice/group, study end Day 60): 0
Survivors ([2]; 42 mg/kg single oral bolus Day 1, 6 mice/group, study end Day 60): 2
Survivors ([2]; 73 mg/kg single oral bolus Day 1, 6 mice/group, study end Day 60): 5
Survivors ([2]; 104 mg/kg single oral bolus Day 1, 6 mice/group, study end Day 60): 6
Survivors ([3]; 5.2 mg/kg single IV bolus Day 1): 0
Survivors ([3]; 5.2 mg/kg single oral bolus Day 1): 0
Survivors ([3]; 10.4 mg/kg single IV bolus Day 1): 0
Survivors ([3]; 10.4 mg/kg single oral bolus Day 1): 0
Survivors ([3]; 20.8 mg/kg single IV bolus Day 1): 0
Survivors ([3]; 20.8 mg/kg single oral bolus Day 1): 0
Survivors ([3]; 42 mg/kg single IV bolus Day 1): 4
Survivors ([3]; 42 mg/kg single oral bolus Day 1): 0
Survivors ([3]; 73 mg/kg single IV bolus Day 1): 6
Survivors ([3]; 73 mg/kg single oral bolus Day 1): 2
Survivors ([3]; 104 mg/kg single IV bolus Day 1): 6
Survivors ([3]; 104 mg/kg single oral bolus Day 1): 5
62-day survivors ([3]; 1393 single IV bolus 42 mg/kg (Group 5)): four
62-day survivors ([3]; 1393 single IV bolus 73 mg/kg (Group 4)): six
62-day survivors ([3]; 1393 single IV bolus 104 mg/kg (Group 3)): six
62-day survivors ([3]; 1393 single oral bolus 72.8 mg/kg (Group 12)): two
62-day survivors ([3]; 1393 single oral bolus 104 mg/kg (Group 11)): Five
Survivors ([4]; 104 mg/kg single oral bolus): 9
Survivors ([4]; oral 36.5 mg/kg on Days 1, 15, 29 and 43 (q14dx3, cumulative 109.5 mg/kg)): 4
Survivors ([4]; oral 73 mg/kg on Day 1, then 21.9 mg/kg on Days 11, 21, 31 and 41 (cumulative 160.6 mg/kg)): 9
Survivors [5]: 5

CCC(=O)O[C@H]1C[C@H]2OC[C@@]2(OC(C)=O)[C@H]2[C@H](OC(=O)c3ccccc3)[C@]3(O)C[C@H](OC(=O)[C@H](O)[C@@H](NC(=O)OC(C)(C)C)c4ccoc4)C(C)=C([C@@H](O)C(=O)[C@]12C)C3(C)C [Compound 1401]
IC50 [1]: < 1 nM

CCC(=O)O[C@H]1C[C@H]2OC[C@@]2(OC(C)=O)[C@H]2[C@H](OC(=O)c3ccccc3)[C@]3(O)C[C@H](OC(=O)[C@H](O)[C@@H](NC(=O)OC(C)(C)C)c4cccs4)C(C)=C([C@@H](O)C(=O)[C@]12C)C3(C)C [Compound 1418]
IC50 [1]: < 1 nM
Toxic Deaths ([2]; 90 mg/kg single oral bolus Day 1, 6 mice/group, study end Day 60): 0
total response rate ([2]; SKMES, 1418 single oral bolus 90 mg/kg (Group 4)): 100%
Complete Responses [2, 6]: four
Partial Responses [2, 6]: two
% Total Response ([2]; po, 90 mg/kg): 100%
Complete Responses ([2]; po, 90 mg/kg): 4
Partial Responses ([2]; po, 90 mg/kg): 2

CC(=O)O[C@@]12CO[C@@H]1C[C@H](O)[C@@]1(C)C(=O)[C@H](O)C3=C(C)[C@@H](OC(=O)[C@H](O)[C@@H](NC(=O)OC(C)(C)C)c4ccccc4)C[C@@](O)([C@@H](OC(=O)c4ccccc4)[C@H]21)C3(C)C [docetaxel, reference compound]
IC50 [1]: 0.6 nM
